In PubChem BioAssay (NCI) one finds TGI data, which are given here for nine molecules.

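Tested at 5 concentrations; 48 h exposure; 96-well plates; endpoints linearly interpolated, else capped at highest concentration. Definition used: TGI = concentration required for complete inhibition of growth.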

Among the test systems are K-562 leukemia; NCI-H522 lung; MALME-3M melanoma; SW-620 colon; OVCAR-3 ovarian; MOLT-4 leukemia; UO-31 renal; SNB-19 CNS; NCI-H226 lung; IGROV1 ovarian; KM12 colon; UACC-257 melanoma; OVCAR-4 ovarian; ACHN renal; M14 melanoma; PC-3 prostate; HS 578T breast; MDA-MB-231 breast; NCI/ADR-RES ovarian.
Common to all, as to assay: growth of human tumour cells (NCI), 48 h

In the case of `COC(=O)CC(C(C(=O)OC)C(=O)OC)N1C(=O)OC(c2ccccc2)C1c1ccccc1` (stereo unspecified), the TGI with K-562 leukemia is above 100 µM; with NCI-H522 lung, above 100 µM; with MALME-3M melanoma, above 100 µM; in the test on SW-620 colon, 74.3 µM; with OVCAR-3 ovarian, above 100 µM; in the test on MOLT-4 leukemia, above 100 µM. In addition, the TGI with UO-31 renal, in the test on SNB-19 CNS, in the test with NCI-H226 lung, in the test with IGROV1 ovarian, in the test with KM12 colon and in the test on UACC-257 melanoma was above 100 µM in each case. Further, the TGI with OVCAR-4 ovarian, in the test with ACHN renal and in the test on M14 melanoma was above 100 µM in each case.

As to `CCOC(=O)CSC1NC(C(=O)OC)CC1OC` (stereo unspecified), the TGI in the test with K-562 leukemia, in the test with NCI-H522 lung, in the test on MALME-3M melanoma, in the test on SW-620 colon, in the test on OVCAR-3 ovarian and in the test with MOLT-4 leukemia was above 100 µM each time. The TGI in the test on PC-3 prostate, in the test with HS 578T breast, in the test with UO-31 renal, in the test with SNB-19 CNS, in the test with IGROV1 ovarian and in the test on KM12 colon was above 100 µM in each case. For the same molecule, the TGI in the test on MDA-MB-231 breast, with UACC-257 melanoma, in the test on OVCAR-4 ovarian, in the test with ACHN renal, in the test on M14 melanoma and in the test with NCI/ADR-RES ovarian was above 100 µM in each case.

Turning to `CC1(C)c2ccccc2N2O[C@@H]3C(=O)N(c4ccccc4)C(=O)[C@@H]3C21c1ccccc1` (stereo partly specified), the TGI in the test on K-562 leukemia, in the test on NCI-H522 lung, in the test with MALME-3M melanoma, in the test on SW-620 colon, with OVCAR-3 ovarian and in the test with MOLT-4 leukemia was above 100 µM each time. Moreover, the TGI in the test with UO-31 renal, in the test on SNB-19 CNS, in the test with NCI-H226 lung, with IGROV1 ovarian, with KM12 colon and with UACC-257 melanoma was above 100 µM in each case. In addition, the TGI with M14 melanoma was above 100 µM.

On to `CC1(C)Cc2c(oc3ncnc(N)c23)CS1`, for which the TGI in the test with K-562 leukemia, with NCI-H522 lung, with MALME-3M melanoma, with SW-620 colon, in the test on OVCAR-3 ovarian and in the test on MOLT-4 leukemia was above 100 µM each time. Moreover, the TGI in the test on UO-31 renal, in the test with SNB-19 CNS, in the test on NCI-H226 lung, with IGROV1 ovarian, with KM12 colon and in the test with UACC-257 melanoma was above 100 µM in each case. The TGI in the test on OVCAR-4 ovarian, in the test on ACHN renal and with M14 melanoma was above 100 µM in each case.

Consider `Nc1nc(N)c2ncn(CCOC(c3ccccc3)P(=O)(O)O)c2n1` (stereo unspecified), for which the TGI with NCI-H522 lung, in the test on MALME-3M melanoma, with SW-620 colon, in the test on OVCAR-3 ovarian, in the test with MOLT-4 leukemia and in the test with UO-31 renal was above 100 µM each time. Besides, the TGI in the test with SNB-19 CNS, with NCI-H226 lung, in the test on IGROV1 ovarian, with KM12 colon, in the test on UACC-257 melanoma and with ACHN renal was above 100 µM throughout.

Turning to `ClCC[N-]CC[N-]CCCl.ClCC[N-]CC[N-]CCCl.[O-][Cl+3]([O-])([O-])O.[Zn+2]`, the TGI with K-562 leukemia is 68.7 µM; in the test on NCI-H522 lung, 27.3 µM; in the test with MALME-3M melanoma, 37.4 µM; in the test with SW-620 colon it was 47.2 µM; with OVCAR-3 ovarian, 32.1 µM; in the test on MOLT-4 leukemia, above 100 µM. The TGI in the test on UO-31 renal was above 72.5 µM; in the test on SNB-19 CNS it was above 100 µM; in the test with NCI-H226 lung, above 100 µM; in the test on IGROV1 ovarian, above 62.3 µM; in the test on KM12 colon it was above 100 µM; in the test on UACC-257 melanoma, 63.2 µM. Further, the TGI with OVCAR-4 ovarian is 41.8 µM; in the test with ACHN renal it was 49.6 µM; in the test on M14 melanoma, 38.5 µM.

For the molecule `Cc1c2ccncc2c(C)c2c1[nH]c1ccc(Oc3ccccc3)cc12`, the TGI in the test on K-562 leukemia was 4.01 µM; with MALME-3M melanoma, 3.58 µM; in the test with SW-620 colon, above 100 µM; in the test on OVCAR-3 ovarian, 7.75 µM; in the test with MOLT-4 leukemia, 6.44 µM; in the test with UO-31 renal, 35.2 µM. For the same molecule, the TGI in the test with SNB-19 CNS turned out to be 46.1 µM; with NCI-H226 lung, 37.6 µM; in the test on IGROV1 ovarian it was 42.4 µM; with KM12 colon, 9.49 µM; with UACC-257 melanoma it was 4.33 µM; in the test on OVCAR-4 ovarian it was 10.5 µM. The TGI in the test with ACHN renal came out at 17.3 µM.

Turning to `CC(C)OC/N=C(/N)NC#N`, the TGI is above 100 µM in the test on K-562 leukemia; above 100 µM in the test with NCI-H522 lung; above 100 µM in the test on MALME-3M melanoma; 45.2 µM in the test with SW-620 colon; above 100 µM in the test on OVCAR-3 ovarian; above 100 µM in the test on MOLT-4 leukemia. Also, the TGI in the test with UO-31 renal, in the test with SNB-19 CNS, with NCI-H226 lung, with IGROV1 ovarian, in the test with KM12 colon and in the test with UACC-257 melanoma was above 100 µM each time. Also, the TGI with OVCAR-4 ovarian, in the test with ACHN renal and in the test with M14 melanoma was above 100 µM throughout.

For the molecule `COc1cc2c(oc(=O)c3cc4cc([Si](C)(C)C)oc4c(OC)c32)c2cccc(O)c12`, the TGI in the test with K-562 leukemia, in the test on NCI-H522 lung, in the test with MALME-3M melanoma, with SW-620 colon, in the test on OVCAR-3 ovarian and in the test with MOLT-4 leukemia was above 100 µM in each case. Further, the TGI with UO-31 renal, with SNB-19 CNS, in the test on NCI-H226 lung, with IGROV1 ovarian, in the test on KM12 colon and in the test with UACC-257 melanoma was above 100 µM throughout. Further, the TGI in the test with OVCAR-4 ovarian, with ACHN renal and with M14 melanoma was above 100 µM each time.
